# Test results published in PubChem BioAssay AID1259407 (Chemical Carcinogenesis Research Information System (CCRIS), 2018).
# Calls of active or inactive are those of the source. How the calls were made is not given here.
# System: CCRIS mutagenicity, Ames/micronucleus/aberration tests
# Experiment: CCRIS mutagenicity studies
# [1] = Test System: AMES SALMONELLA TYPHIMURIUM, Strain/Indicator: TA98, Metabolic Activation: NONE, Method: STANDARD PLATE
# [2] = Test System: AMES SALMONELLA TYPHIMURIUM, Strain/Indicator: TA100, Metabolic Activation: NONE, Method: STANDARD PLATE
# [3] = Test System: AMES SALMONELLA TYPHIMURIUM, Strain/Indicator: TA1535, Metabolic Activation: NONE, Method: STANDARD PLATE
# [4] = Test System: AMES SALMONELLA TYPHIMURIUM, Strain/Indicator: TA1537, Metabolic Activation: NONE, Method: STANDARD PLATE
# [5] = Test System: AMES SALMONELLA TYPHIMURIUM, Strain/Indicator: TA1538, Metabolic Activation: NONE, Method: STANDARD PLATE
# [6] = Test System: MOUSE LYMPHOMA, Strain/Indicator: L5178Y (TK+/TK-), Metabolic Activation: NONE, Method: SUSPENSION/PLATE
# [7] = Test System: AMES SALMONELLA TYPHIMURIUM, Strain/Indicator: TA98, Metabolic Activation: NONE, Method: PREINCUBATION
# [8] = Test System: AMES SALMONELLA TYPHIMURIUM, Strain/Indicator: TA100, Metabolic Activation: NONE, Method: PREINCUBATION
smiles,measurement,setting,value
CCCO,mutagenic call,"Test System: AMES SALMONELLA TYPHIMURIUM, Strain/Indicator: TA98, Metabolic Activation: HAMSTER, LIVER, S-9, AROCLOR 1254, Method: STANDARD PLATE",inactive; negative
same,mutagenic call,[1],inactive; negative
same,mutagenic call,"Test System: AMES SALMONELLA TYPHIMURIUM, Strain/Indicator: TA98, Metabolic Activation: RAT, LIVER, S-9, AROCLOR 1254, Method: STANDARD PLATE",inactive; negative
same,mutagenic call,"Test System: AMES SALMONELLA TYPHIMURIUM, Strain/Indicator: TA100, Metabolic Activation: HAMSTER, LIVER, S-9, AROCLOR 1254, Method: STANDARD PLATE",inactive; negative
same,mutagenic call,[2],inactive; negative
same,mutagenic call,"Test System: AMES SALMONELLA TYPHIMURIUM, Strain/Indicator: TA100, Metabolic Activation: RAT, LIVER, S-9, AROCLOR 1254, Method: STANDARD PLATE",inactive; negative
same,mutagenic call,"Test System: AMES SALMONELLA TYPHIMURIUM, Strain/Indicator: TA1535, Metabolic Activation: HAMSTER, LIVER, S-9, AROCLOR 1254, Method: STANDARD PLATE",inactive; negative
same,mutagenic call,[3],inactive; negative
same,mutagenic call,"Test System: AMES SALMONELLA TYPHIMURIUM, Strain/Indicator: TA1535, Metabolic Activation: RAT, LIVER, S-9, AROCLOR 1254, Method: STANDARD PLATE",inactive; negative
same,mutagenic call,"Test System: AMES SALMONELLA TYPHIMURIUM, Strain/Indicator: TA1537, Metabolic Activation: HAMSTER, LIVER, S-9, AROCLOR 1254, Method: STANDARD PLATE",inactive; negative
same,mutagenic call,[4],inactive; negative
same,mutagenic call,"Test System: AMES SALMONELLA TYPHIMURIUM, Strain/Indicator: TA1537, Metabolic Activation: RAT, LIVER, S-9, AROCLOR 1254, Method: STANDARD PLATE",inactive; negative
same,mutagenic call,"Test System: AMES SALMONELLA TYPHIMURIUM, Strain/Indicator: TA1538, Metabolic Activation: HAMSTER, LIVER, S-9, AROCLOR 1254, Method: STANDARD PLATE",inactive; negative
same,mutagenic call,[5],inactive; negative
same,mutagenic call,"Test System: AMES SALMONELLA TYPHIMURIUM, Strain/Indicator: TA1538, Metabolic Activation: RAT, LIVER, S-9, AROCLOR 1254, Method: STANDARD PLATE",inactive; negative
same,mutagenic call,[6],inactive; negative
same,mutagenic call,"Test System: MOUSE LYMPHOMA, Strain/Indicator: L5178Y (TK+/TK-), Metabolic Activation: RAT, LIVER, S-9, AROCLOR 1254, Method: SUSPENSION/PLATE",inactive; negative
CCO[Si](C)(OCC)OCC,mutagenic call,[1],inactive; negative
same,mutagenic call,"Test System: AMES SALMONELLA TYPHIMURIUM, Strain/Indicator: TA98, Metabolic Activation: RAT LIVER S-9, AROCLOR 1254, Method: STANDARD PLATE",inactive; negative
same,mutagenic call,[2],inactive; negative
same,mutagenic call,"Test System: AMES SALMONELLA TYPHIMURIUM, Strain/Indicator: TA100, Metabolic Activation: RAT LIVER S-9, AROCLOR 1254, Method: STANDARD PLATE",inactive; negative
same,mutagenic call,[3],inactive; negative
same,mutagenic call,"Test System: AMES SALMONELLA TYPHIMURIUM, Strain/Indicator: TA1535, Metabolic Activation: RAT LIVER S-9, AROCLOR 1254, Method: STANDARD PLATE",inactive; negative
same,mutagenic call,[4],inactive; negative
same,mutagenic call,"Test System: AMES SALMONELLA TYPHIMURIUM, Strain/Indicator: TA1537, Metabolic Activation: RAT LIVER S-9, AROCLOR 1254, Method: STANDARD PLATE",inactive; negative
same,mutagenic call,[5],inactive; negative
same,mutagenic call,"Test System: AMES SALMONELLA TYPHIMURIUM, Strain/Indicator: TA1538, Metabolic Activation: RAT LIVER S-9, AROCLOR 1254, Method: STANDARD PLATE",inactive; negative
same,mutagenic call,"Test System: E. COLI, Strain/Indicator: P3078 POLA, Metabolic Activation: NONE, Method: SPOT TEST",inactive; negative
same,mutagenic call,"Test System: E. COLI, Strain/Indicator: P3078 POLA, Metabolic Activation: RAT LIVER S-9, AROCLOR 1254, Method: SPOT TEST",inactive; negative
same,mutagenic call,"Test System: E. COLI, Strain/Indicator: W3110, Metabolic Activation: NONE, Method: SPOT TEST",inactive; negative
same,mutagenic call,"Test System: E. COLI, Strain/Indicator: W3110, Metabolic Activation: RAT LIVER S-9, AROCLOR 1254, Method: SPOT TEST",inactive; negative
same,mutagenic call,[6],inactive; negative
same,mutagenic call,"Test System: MOUSE LYMPHOMA, Strain/Indicator: L5178Y (TK+/TK-), Metabolic Activation: RAT, LIVER, S-9, Method: SUSPENSION/PLATE",inactive; negative
Clc1ccc(C(Cl)(Cl)Cl)cc1,mutagenic call,"End Point: IN VITRO CHROMOSOMAL ABERRATIONS, Test System: CHL CELLS, Metabolic Activation: NONE",active; positive (structural changes)
same,mutagenic call,"End Point: IN VITRO CHROMOSOMAL ABERRATIONS, Test System: CHL CELLS, Metabolic Activation: RAT, LIVER, S-9, SODIUM PHENOBARBITAL AND 5,6-BENZOFLAVONE",active; positive (structural changes)
same,mutagenic call,[7],inactive; negative
same,mutagenic call,"Test System: AMES SALMONELLA TYPHIMURIUM, Strain/Indicator: TA98, Metabolic Activation: RAT LIVER S-9, PHENOBARBITAL AND BETA-NAPHTHOFLAVONE, Method: PREINCUBATION",active; positive
same,mutagenic call,[8],inactive; negative
same,mutagenic call,"Test System: AMES SALMONELLA TYPHIMURIUM, Strain/Indicator: TA100, Metabolic Activation: RAT LIVER S-9, PHENOBARBITAL AND BETA-NAPHTHOFLAVONE, Method: PREINCUBATION",active; positive
same,mutagenic call,"Test System: AMES SALMONELLA TYPHIMURIUM, Strain/Indicator: TA1535, Metabolic Activation: NONE, Method: PREINCUBATION",inactive; negative
same,mutagenic call,"Test System: AMES SALMONELLA TYPHIMURIUM, Strain/Indicator: TA1535, Metabolic Activation: RAT LIVER S-9, PHENOBARBITAL AND BETA-NAPHTHOFLAVONE, Method: PREINCUBATION",active; positive
same,mutagenic call,"Test System: AMES SALMONELLA TYPHIMURIUM, Strain/Indicator: TA1537, Metabolic Activation: NONE, Method: PREINCUBATION",inactive; negative
same,mutagenic call,"Test System: AMES SALMONELLA TYPHIMURIUM, Strain/Indicator: TA1537, Metabolic Activation: RAT LIVER S-9, PHENOBARBITAL AND BETA-NAPHTHOFLAVONE, Method: PREINCUBATION",active; positive
same,mutagenic call,"Test System: AMES SALMONELLA TYPHIMURIUM, Strain/Indicator: TA1538, Metabolic Activation: NONE, Method: PREINCUBATION",inactive; negative
same,mutagenic call,"Test System: AMES SALMONELLA TYPHIMURIUM, Strain/Indicator: TA1538, Metabolic Activation: RAT LIVER S-9, PHENOBARBITAL AND BETA-NAPHTHOFLAVONE, Method: PREINCUBATION",inactive; negative
same,mutagenic call,"Test System: E.COLI, Strain/Indicator: WP2UVRA, Metabolic Activation: NONE, Method: PREINCUBATION",inactive; negative
same,mutagenic call,"Test System: E.COLI, Strain/Indicator: WP2UVRA, Metabolic Activation: RAT LIVER S-9, PHENOBARBITAL AND BETA-NAPHTHOFLAVONE, Method: PREINCUBATION",active; positive
ClC[C@@H]1CO1,mutagenic call,[8],active; positive
same,mutagenic call,[2],active; positive
same,mutagenic call,"Test System: AMES SALMONELLA TYPHIMURIUM, Strain/Indicator: TA100, Metabolic Activation: RAT, LIVER, S-9, PCB, Method: PREINCUBATION",active; positive
COC1=CC(=O)O[C@@H](CCc2ccccc2)C1,mutagenic call,"Test System: Mouse lymphoma cells, Strain/Indicator: L5178Y ( tk+/tk-), Metabolic Activation: Human, Liver, S-9, Method: Suspension/plate",inactive; negative
CCCCCOC(=O)C=Cc1ccc([N+](=O)[O-])o1,mutagenic call,[7],active; positive
